From PubChem BioAssay (NCI) come the findings set out here.

Assay in all cases: NCI anticancer screen, dose series, 48 h
The subject of test [1] is NCI/ADR-RES ovarian.
Test [2] has as its system SNB-75 CNS.
Test [3] relates to UACC-257 melanoma.
The test system of test [4] is HT29 colon.
Test [5] concerns SR leukemia.
Test [6] deals with BT-549 breast.
Test [7] has as its system HOP-62 NSCLC.
The subject of test [8] is SK-MEL-28 melanoma.
Test [9] concerns MDA-MB-231 breast.
The subject of test [10] is M14 melanoma.

Several values for one entry are separate records, joined by “and”; a condition that tells them apart may be missing. Equal entries are not always repeated.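 Where inhibition never reached the appropriate level, the endpoint shown equals the highest concentration tested. Otherwise, values were interpolated linearly from a five-concentration, 48-hour dose response in 96-well plates. GI50 is the concentration that inhibits growth by half. TGI marks complete inhibition of growth.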

In the case of `O=C(c1cccs1)c1nc2cc(Cl)ccc2[n+]([O-])c1C(F)(F)F`, the GI50 in [1] is greater than 100 µM; in test [2], 57.3 µM; in [3] it was 49.9 µM; in test [4], 58.9 µM; in test [5], 35.4 µM; in test [6], greater than 100 µM. In addition, the GI50 in test [7], in [8], in test [9] and in [10] was greater than 100 µM in each case. The TGI in [1], in test [2], in [3], in test [4], in [5] and in test [6] was greater than 100 µM throughout. Further, the TGI in [7], in test [8], in [9] and in [10] was greater than 100 µM each time.

Turning to `COc1ncc(-c2ccc3nccc(C#CCN4CCN(S(C)(=O)=O)CC4)c3c2)cc1NS(=O)(=O)c1ccc(F)cc1F`, the GI50 in test [1] is 0.465 µM; in test [2] it was 0.0106 µM; in [3], 0.0386 µM; in test [4] it was 0.0237 µM; in test [5], 0.222 µM; in test [6], 0.039 µM. Also, the GI50 in test [7] was less than 0.0159 µM; in test [8], 0.0256 µM; in [9], 0.367 µM; in test [10] it was 0.0855 µM. The TGI in [1] was 12.4 µM; in [2] it was 0.152 µM; in test [3], 0.517 µM; in test [4], 2.1 µM; in test [5], 27 µM; in test [6] it was 0.874 µM. The TGI in test [7] was 5.56 µM; in test [8] it was 0.843 µM; in [9] it was 17.2 µM; in test [10] it was 2.38 µM.

`C=C(CN1CCN(c2ccccc2C(F)(F)F)CC1)c1ccc(C(=O)Nc2ccccc2N)cc1`: the GI50 in test [1] was 2.01 µM; in [2], 2.82 µM; in test [3], 4.66 µM; in [4], 4.09 µM; in [5] it was 2.36 µM; in [6], 2.67 µM. Also, the GI50 in test [7] is 4.76 µM; in [8], 10.4 µM; in [9], 4.68 µM; in test [10], 4.47 µM. The TGI in test [1] is 10.5 µM; in [2] it was 20.1 µM; in test [3], greater than 62.6 µM; in [4], 20.2 µM; in [5], 5.95 µM; in test [6], 14 µM. Further, the TGI in test [7] is greater than 44.4 µM; in test [8] it was greater than 100 µM; in [9], greater than 56.1 µM; in [10], greater than 100 µM.

Regarding `COC(=O)[C@@H](C)C[C@H](Cc1ccccc1)NC(=O)c1csc([C@@H](C[C@H](C(C)C)N(C)C(=O)C2(NC(=O)[C@H]3CCCCN3C)CCC2)OC(C)=O)n1`, the GI50 in [1] is 16.9 µM; in [2], 0.00351 µM and 0.00319 µM; in test [3] it was greater than 25 µM; in test [4] it was 0.00269 µM and 0.0025 µM; in test [5], 0.000495 µM and 0.0025 µM; in test [6], 0.0025 µM. Also, the GI50 in test [7] was 0.0367 µM and 0.00706 µM; in [8] it was 0.0307 µM and 0.00667 µM; in [9], 0.00584 µM and 0.0025 µM; in test [10], 0.00413 µM and 0.0025 µM. For the same molecule, the TGI in test [1] was greater than 25 µM; in test [2] it was greater than 25 µM; in [3] it was greater than 25 µM; in test [4] it was greater than 25 µM; in test [5], greater than 25 µM; in [6], 0.0157 µM. In addition, the TGI in [7] was greater than 25 µM; in test [8], greater than 25 µM; in test [9], 0.152 µM; in [10] it was 0.0564 µM and 0.0107 µM.

Take `C/C(=N\O)c1cccc(Nc2cc(-c3ccccc3)nc3c(O)cccc23)c1`: the GI50 was 1.37 µM in test [1]; 3.21 µM in test [2]; 6.28 µM in test [3]; 12.3 µM in test [4]; 0.415 µM in [5]; 11.8 µM in test [6]. Further, the GI50 in test [7] is 3.09 µM; in test [8], 10.9 µM; in test [9], 2.34 µM; in test [10], 3.47 µM. Also, the TGI was greater than 23.5 µM in test [1]; 28.4 µM in test [2]; 25.4 µM in test [3]; 42.7 µM in test [4]; 52.3 µM in test [6]; 15 µM in test [7]. In addition, the TGI in test [8] was 27.8 µM; in [9], 13.3 µM; in test [10] it was 18.8 µM.

`O=C(Nc1ccc(I)cc1)c1cccc([N+](=O)[O-])c1O`: the GI50 in test [1] was 2.94 µM; in test [2], 2.77 µM; in test [3] it was 2.96 µM; in test [4], 4.84 µM; in test [5], 2.87 µM; in [6] it was 3.01 µM. Also, the GI50 in test [7] was 6.93 µM; in [8], 4.63 µM; in [9], 6.03 µM; in [10], 3.54 µM. The TGI in test [1] was greater than 100 µM; in [2] it was 38.6 µM; in test [3], 8.57 µM; in [4] it was greater than 100 µM; in test [5], 19.8 µM; in [6], 19 µM. For the same molecule, the TGI is greater than 100 µM in test [7], greater than 100 µM in test [8], greater than 100 µM in test [9] and 49.5 µM in [10].

Consider `C=C1C(=O)OC2CC1C(OC(C)=O)C/C(C)=C/CC/C(C)=C\CCC2(C)O` (stereo unspecified), for which the TGI is 15.4 µM and 17.4 µM in [1]; 29.7 µM and 24.3 µM in test [2]; 18.7 µM and 12.7 µM in test [3]; 6.44 µM and 18 µM in test [4]; 4.85 µM in test [5]; 15.5 µM and 5.35 µM in [6]. Also, the TGI was 35.4 µM and 31.7 µM in test [7]; 11.2 µM and 15.7 µM in test [8]; 22.5 µM and 22.2 µM in test [9]; > 36.9 µM and 29.6 µM in test [10]. Further, the GI50 is 1.69 µM and 4.87 µM in test [4]; 4.31 µM and 2.05 µM in [6].

As for `O=Cc1ccc(-c2ccc(-c3ccc(C=O)o3)[se]2)o1`, the GI50 in [1] is greater than 100 µM; in [2], 29.6 µM; in test [3], greater than 100 µM; in [4], greater than 100 µM; in test [5], greater than 100 µM; in test [6], greater than 100 µM. Also, the GI50 in [7] is 57.5 µM; in test [8], greater than 100 µM; in [9] it was 54 µM; in [10], greater than 100 µM. Moreover, the TGI in [1], in test [2], in [3], in test [4], in test [5] and in test [6] was greater than 100 µM each time. Moreover, the TGI in test [7], in [8], in test [9] and in test [10] was greater than 100 µM each time.
